Experiments:
[1] = during tablet manufacture and storage
[2] = across the physiological pH range; cited from earlier work
dopamine receptors = conditions: compared to pramipexole; cited from earlier work
[3] = test system: eosinophil counts in human blood and tissues; conditions: cited from earlier work

SMILES | chiral purity over time [1] | solubility [2] | affinity for dopamine receptors (dopamine receptors) | effect on eosinophil counts [3]
CCCN[C@@H]1CCc2nc(N)sc2C1 | did not change over time | freely soluble |  | 
CCCN[C@@H]1CCc2nc(N)sc2C1 [dexpramipexole, (6R)-2-amino-4,5,6,7-tetrahydro-6-(propylamino)benzothiazole] |  |  | greatly reduced when compared to pramipexole | selectively and significantly lower eosinophil counts

Reference: patent publication US20250205207A1, “MATRIX TABLETS OF DEXPRAMIPEXOLE AND METHODS OF MANUFACTURING AND USE THEREOF” (Areteia Therapeutics, Inc., priority 2023, published 2025)
